ChEMBL document CHEMBL2311471, “Synthesis of (E)-8-(3-chlorostyryl)caffeine analogues leading to 9-deazaxanthine derivatives as dual A(2A) antagonists/MAO-B inhibitors” (J Med Chem, 2013)
pIC50, pKi: −log10 of the molar value.

How the values were obtained:
[1] = target: Adenosine receptor A2a (Homo sapiens, UniProt P29274); experiment: Displacement of [3H]ZM241385 from human adenosine A2A receptor expressed in HEK293 cells after 1 hr by microbeta scintillation counting analysis; type: cell-based
Adenosine receptor A2a, sequence (P29274 whole entry): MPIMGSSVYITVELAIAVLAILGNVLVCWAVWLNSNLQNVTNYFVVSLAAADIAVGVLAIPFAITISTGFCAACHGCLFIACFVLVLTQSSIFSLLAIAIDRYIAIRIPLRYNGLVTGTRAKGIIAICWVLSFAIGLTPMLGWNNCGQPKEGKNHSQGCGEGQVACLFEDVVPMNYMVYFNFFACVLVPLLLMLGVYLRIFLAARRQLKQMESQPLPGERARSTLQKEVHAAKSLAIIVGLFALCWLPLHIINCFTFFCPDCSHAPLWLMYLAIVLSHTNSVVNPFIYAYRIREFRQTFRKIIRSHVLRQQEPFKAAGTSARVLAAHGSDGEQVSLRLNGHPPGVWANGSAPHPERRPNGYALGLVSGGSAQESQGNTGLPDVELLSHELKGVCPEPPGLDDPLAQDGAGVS

[2] = target: T1, Amine oxidase [flavin-containing] B (Homo sapiens, UniProt P27338); experiment: Inhibition of human MAOB after 1 hr by luminescence assay
T1 sequence (P27338 whole entry): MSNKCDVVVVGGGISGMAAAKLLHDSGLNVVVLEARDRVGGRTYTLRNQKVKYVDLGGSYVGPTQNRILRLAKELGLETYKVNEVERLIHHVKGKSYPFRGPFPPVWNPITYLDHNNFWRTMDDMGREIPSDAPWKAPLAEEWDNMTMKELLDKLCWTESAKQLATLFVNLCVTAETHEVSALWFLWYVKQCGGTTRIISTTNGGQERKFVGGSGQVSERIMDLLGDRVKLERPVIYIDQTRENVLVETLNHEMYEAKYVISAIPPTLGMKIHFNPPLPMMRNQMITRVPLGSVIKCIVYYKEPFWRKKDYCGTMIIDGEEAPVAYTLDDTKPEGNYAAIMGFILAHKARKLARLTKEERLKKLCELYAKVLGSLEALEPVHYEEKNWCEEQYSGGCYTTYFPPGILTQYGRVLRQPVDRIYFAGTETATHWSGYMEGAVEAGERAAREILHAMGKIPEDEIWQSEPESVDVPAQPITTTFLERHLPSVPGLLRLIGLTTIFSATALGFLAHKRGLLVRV

[3] = target: T2, Amine oxidase [flavin-containing] A (Homo sapiens, UniProt P21397); experiment: Inhibition of human MAOA after 1 hr by luminescence assay
T2 sequence (P21397 whole entry): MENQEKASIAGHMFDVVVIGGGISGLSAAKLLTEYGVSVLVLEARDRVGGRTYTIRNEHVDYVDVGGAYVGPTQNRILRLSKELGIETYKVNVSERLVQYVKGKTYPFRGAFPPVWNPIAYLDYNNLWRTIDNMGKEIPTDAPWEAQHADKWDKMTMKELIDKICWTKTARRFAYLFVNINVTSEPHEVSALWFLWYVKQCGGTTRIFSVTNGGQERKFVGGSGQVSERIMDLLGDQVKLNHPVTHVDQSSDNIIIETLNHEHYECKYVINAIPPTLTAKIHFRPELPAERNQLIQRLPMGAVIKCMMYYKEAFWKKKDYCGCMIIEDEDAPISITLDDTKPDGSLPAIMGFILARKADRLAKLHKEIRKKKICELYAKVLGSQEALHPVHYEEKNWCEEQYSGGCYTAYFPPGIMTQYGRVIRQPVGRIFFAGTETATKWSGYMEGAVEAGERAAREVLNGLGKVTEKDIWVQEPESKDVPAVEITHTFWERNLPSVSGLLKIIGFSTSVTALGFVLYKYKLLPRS

Work on `Cn1c(=O)c2c(cc(/C=C/c3cccc(Cl)c3)n2C)n(C)c1=O` yielded a pKi [1] of 6.37 and a pIC50 [2] of 5.83.
Compound `Cn1c(=O)c2c(cc(/C=C/c3ccc(O)cc3)n2C)n(C)c1=O` has a pKi [1] of under 5.00 and a pIC50 [2] of under 5.00.
Compound `CCCOc1ccc(/C=C/c2cc3c(c(=O)n(C)c(=O)n3C)n2C)cc1` has a pKi [1] of 6.51, a pIC50 [2] of 5.86 and a pIC50 [3] of 5.89.
Compound `Cn1c(=O)c2c(cc(/C=C/c3ccncc3)n2C)n(C)c1=O` has a pKi [1] of under 5.00 and a pIC50 [2] of under 5.00.
In the case of `Cn1c(=O)c2c(c3ccc(-c4cccc(Cl)c4)cc3n2C)n(C)c1=O`, the pKi [1] was under 6.00, the pIC50 [2] was 5.86 and the pIC50 [3] was 5.51.
`CCn1c(=O)c2c(cc(OCc3ccc(Cl)cc3)n2C)n(CC)c1=O` was tested, and the pKi [1] was under 5.00 and the pIC50 [2] was under 6.00.
Compound `Cn1c(=O)c2c(cc(/C=C/c3cccc(C(F)(F)F)c3)n2C)n(C)c1=O` has a pKi [1] of under 5.00, a pIC50 [2] of 6.32 and a pIC50 [3] of 5.24.
Work on `Cn1c(=O)c2c(cc(/C=C/c3cccc(N)n3)n2C)n(C)c1=O` yielded a pKi [1] of 6.05 and a pIC50 [2] of under 5.00.
`Cn1c(=O)c2c(cc(/C=C/c3ccc(C(F)(F)F)cc3)n2C)n(C)c1=O` showed a pKi [1] of 6.28, a pIC50 [2] of 6.37 and a pIC50 [3] of under 5.00.
Compound `Cn1c(=O)c2c(cc(/C=C/c3ccc4c(c3)OCO4)n2C)n(C)c1=O` has a pKi [1] of 6.33 and a pIC50 [2] of under 6.00.
Work on `CCn1c(=O)c2c(cc(/C=C/c3ccc(Cl)cc3)n2C)n(CC)c1=O` yielded a pKi [1] of under 5.00 and a pIC50 [2] of under 6.00.
Compound `CN(C(=O)/C=C/c1ccccc1)c1cn(C)c(=O)n(C)c1=O` has a pKi [1] of under 6.00 and a pIC50 [2] of under 5.00.
In the case of `Cn1c(/C=C/c2ccccc2)nc2c1ccc(=O)n2C`, the pKi [1] was under 5.00 and the pIC50 [2] was under 5.00.
Work on `Cn1c(=O)c2c(cc(-c3nc4ccc(Cl)cc4o3)n2C)n(C)c1=O` yielded a pKi [1] of under 6.00 and a pIC50 [2] of under 6.00.
`CCn1c(=O)c2c(nc(/C=C/c3ccc(OC)c(OC)c3)n2C)n(CC)c1=O` [ISTRADEFYLLINE] gave a pIC50 [2] of under 5.00.
Work on `Cn1c(=O)c2c(cc(Oc3cccc(-c4ccccc4)c3)n2C)n(C)c1=O` yielded a pKi [1] of under 5.00 and a pIC50 [2] of under 5.00.
With `CC(=O)c1ccc(/C=C/c2cc3c(c(=O)n(C)c(=O)n3C)n2C)cc1` the pKi [1] was 7.03, the pIC50 [2] was 6.23 and the pIC50 [3] was under 5.00.
With `Cn1c(=O)c2c(cc(/C=C/c3ccc(Cl)c(Cl)c3)n2C)n(C)c1=O` the pKi [1] was under 5.00 and the pIC50 [2] was 6.88.
Work on `Cn1c(=O)c2c(cc(C#Cc3ccc(Cl)cc3)n2C)n(C)c1=O` yielded a pKi [1] of under 5.00, a pIC50 [2] of 7.17 and a pIC50 [3] of 5.69.
For `COc1cccc(/C=C/c2cc3c(c(=O)n(C)c(=O)n3C)n2C)c1`, the pKi [1] was 6.41, the pIC50 [2] was 6.43 and the pIC50 [3] was 5.91.
`Cn1c(=O)c2c(cc(C#Cc3cccc(Cl)c3)n2C)n(C)c1=O` was tested, and the pKi [1] was under 5.00, the pIC50 [2] was 6.76 and the pIC50 [3] was under 5.00.
`Cn1c(=O)c2c(cc(OCc3ccc4ccccc4c3)n2C)n(C)c1=O` gave a pKi [1] of under 5.00, a pIC50 [2] of under 6.00 and a pIC50 [3] of under 5.00.
With `Cn1c(=O)c2c(nc(/C=C/c3ccc(Cl)cc3)n2C)n(C)c1=O` the pKi [1] was 6.85, the pIC50 [2] was 6.37 and the pIC50 [3] was under 5.00.
In the case of `Cn1c(=O)c2c(cc(/C=C/c3ccc(F)cc3)n2C)n(C)c1=O`, the pKi [1] was 6.37, the pIC50 [2] was 6.76 and the pIC50 [3] was 6.09.
With `CCn1c(=O)c2c(cc(C#Cc3ccc(Cl)cc3)n2C)n(CC)c1=O` the pKi [1] was under 5.00 and the pIC50 [2] was under 6.00.
Compound `Cn1c(=O)c2c(cc(/C=C/c3ccccc3)n2C)n(C)c1=O` has a pKi [1] of 6.77 and a pIC50 [2] of 5.80.
`Cn1c(=O)c2c(cc(-n3cc(-c4ccc(Cl)cc4)nn3)n2C)n(C)c1=O` was tested, and the pKi [1] was under 5.00, the pIC50 [2] was 6.74 and the pIC50 [3] was 6.14.
In the case of `Cn1c(=O)c2c(cc(/C=C/c3ccccc3O)n2C)n(C)c1=O`, the pKi [1] was 5.94 and the pIC50 [2] was under 6.00.
For `Cn1c(=O)c2c(cc(C#CCc3ccccc3)n2C)n(C)c1=O`, the pKi [1] was under 5.00 and the pIC50 [2] was under 6.00.
`Cn1c(=O)c2c(cc(Oc3cccc(Cl)c3)n2C)n(C)c1=O` showed a pKi [1] of under 5.00 and a pIC50 [2] of under 5.00.
`Cn1c(=O)c2c(c3ccc(-c4ccccc4)cc3n2C)n(C)c1=O` was tested, and the pKi [1] was under 5.00 and the pIC50 [2] was 5.12.
With `CC(=O)c1cccc(/C=C/c2cc3c(c(=O)n(C)c(=O)n3C)n2C)c1` the pKi [1] was under 5.00 and the pIC50 [2] was under 5.00.
`Cn1ccc2nc(/C=C/c3ccccc3)n(C)c2c1=O` was tested, and the pKi [1] was under 5.00 and the pIC50 [2] was under 5.00.
Work on `Cn1c(=O)c2c(cc(OCc3ccc(Cl)c(C(F)(F)F)c3)n2C)n(C)c1=O` yielded a pKi [1] of under 5.00, a pIC50 [2] of 6.23 and a pIC50 [3] of under 5.00.
Compound `Cn1c(=O)c2c(cc(/C=C/c3ccc(C#N)cc3)n2C)n(C)c1=O` has a pKi [1] of under 6.00, a pIC50 [2] of 6.26 and a pIC50 [3] of under 5.00.
Work on `Cn1c(=O)c2c(cc(/C=C/c3cccc(C#N)c3)n2C)n(C)c1=O` yielded a pKi [1] of under 5.00 and a pIC50 [2] of under 5.00.
For `Cn1c(=O)c2c(cc(NC(=O)c3ccc(Cl)cc3)n2C)n(C)c1=O`, the pKi [1] was under 5.00 and the pIC50 [2] was under 5.00.
`COc1ccc(/C=C/c2cc3c(c(=O)n(C)c(=O)n3C)n2C)cc1` showed a pKi [1] of 6.61, a pIC50 [2] of 6.12 and a pIC50 [3] of under 6.00.
For `Cn1c(=O)c2c(c3cc(OCc4ccccc4)ccc3n2C)n(C)c1=O`, the pKi [1] was under 6.00, the pIC50 [2] was 5.28 and the pIC50 [3] was under 5.00.
With `Cn1c(=O)c2c(cc(/C=C/c3ccc(S(C)(=O)=O)cc3)n2C)n(C)c1=O` the pKi [1] was under 6.00 and the pIC50 [2] was under 6.00.
Work on `Cn1c(=O)c2c(cc(/C=C/c3cccc(O)c3)n2C)n(C)c1=O` yielded a pKi [1] of under 6.00 and a pIC50 [2] of under 6.00.
`Cn1c(=O)c2c(cc(OCc3ccc(Cl)cc3)n2C)n(C)c1=O` showed a pKi [1] of under 5.00, a pIC50 [2] of 7.32 and a pIC50 [3] of 5.54.
`CCn1c(/C=C/c2ccc(Cl)cc2)cc2c1c(=O)n(C)c(=O)n2C` was tested, and the pKi [1] was under 5.00 and the pIC50 [2] was under 6.00.
In the case of `Cn1c(=O)c2c(cc(/C=C/c3ccc(Br)cc3)n2C)n(C)c1=O`, the pKi [1] was under 5.00, the pIC50 [2] was 6.57 and the pIC50 [3] was 5.79.
